Reference: patent US8198447B2, “Fused tricyclic compound having aldose reductase inhibitory activity” (National University Corporation University of Toyama, priority 2007, dated 2012)

These compounds were tested against Aldose reductase II (Homo sapiens, UniProt P15121) (assay: Aldose reductase inhibitory activity (NADPH decrease at 340 nm, DL-glyceraldehyde substrate)). Details: pH 6.2, 100 mM DL-glyceraldehyde, 1.5 mM NADPH.
Assay type: biochemical
Protocol: A reaction solution containing a 200 mM of a phosphate buffer solution (pH 6.2), 1.5 mM of reduced nicotinamide adenine dinucleotide phosphate (NADPH), 1 mg/ml of bovine serum albumin, a test compound, and 100 mM of DL-glyceraldehyde as a substrate was prepared. Aldose reductase II (5.1×10^−1 unit/ml) was added to the solution to initiate the reaction, and the amount of NADPH reduced by the reaction was measured at an absorption wavelength of 340 nm using a spectrophotometer.
With `O=C(O)Cn1c2c(c3ccccc31)CCN(c1ccccc1)C2=S` [Compound 33, (2-Phenyl-1-thioxo-1,2,3,4-tetrahydro-β-carbolin-9-yl)acetic acid] the IC50 was 36.3 µM.
Compound `COc1ccc2c(c1)c1c(n2CC(=O)O)C(=S)N(Cc2ccccc2)CC1` [Compound 29, (2-Benzyl-6-methoxy-1-thioxo-1,2,3,4-tetrahydro-β-carbolin-9-yl)acetic acid] has an IC50 of 5.7 µM.
`O=C(O)Cn1c2c(c3cc(F)ccc31)CCN(Cc1ccccc1F)C2=O` [Compound 25, [2-(2-Fluorophenylmethyl)-6-fluoro-1-oxo-1,2,3,4-tetrahydro-β-carbolin-9-yl]acetic acid] gave an IC50 of 48.6 µM.
`O=C(O)Cn1c2c(c3ccccc31)CCSC2=O` [Compound 57, (1-Oxo-3,4-dihydro-1H-2-thia-9-azafluoren-9-yl)acetic acid] was tested, and the IC50 was 2.8 µM.
Work on `O=C(O)Cn1c2c(c3cc(Cl)ccc31)CCOC2=S` [Compound 31, (6-chloro-1-thioxo-3,4-dihydro-1H-pyrano[3,4-b]indol-9-yl) acetic acid] yielded an IC50 of 11.1 µM.
`O=C(O)Cn1c2c(c3ccccc31)CCN(C(=O)c1ccc(F)cc1F)C2=O` [Compound 49, [2-(2,4-Difluorobenzoyl)-1-oxo-1,2,3,4-tetrahydro-β-carbolin-9-yl]acetic acid] was tested, and the IC50 was 45.3 µM.
`CC(C)(C)c1ccc2c(c1)c1c(n2CC(=O)O)C(=O)SCC1` [Compound 59, (6-tert-Butyl-1-oxo-3,4-dihydro-1H-2-thia-9-azafluoren-9-yl)acetic acid] showed an IC50 of 1.4 µM.
Work on `O=C(O)Cn1c2c(c3c4c(ccc31)CCCC4)CCSC2=O` [Compound 66, (8-Oxo-1,3,4,8,10,11-hexahydro-2H-9-thia-7-azabenzo[c]fluoren-7-yl)acetic acid] yielded an IC50 of 1 µM.
For `COc1cc(C(=O)N2CCc3c(n(CC(=O)O)c4ccccc34)C2=O)cc(OC)c1OC` [Compound 53, [2-(3,4,5-Trimetoxybenzoyl)-1-oxo-1,2,3,4-tetrahydro-β-carbolin-9-yl]acetic acid], the IC50 was 46.8 µM.
In the case of `O=C(O)Cn1c2c(c3cc(O)ccc31)CCN(Cc1ccccc1)C2=S` [Compound 40, (2-Benzyl-6-hydroxy-1-thioxo-1,2,3,4-tetrahydro-β-carbolin-9-yl)acetic acid], the IC50 is reported as 4.8 µM.
Work on `O=C(O)Cn1c2c(c3c(Cl)cccc31)CCSC2=O` [Compound 64, (5-Chloro-1-oxo-3,4-dihydro-1H-2-thia-9-azafluoren-9-yl)acetic acid] yielded an IC50 of 3.6 µM.
`O=C(O)Cn1c2c(c3cc(Br)ccc31)CCN(Cc1ccccc1)C2=S` [Compound 32, (2-Benzyl-6-bromo-1-thioxo-1,2,3,4-tetrahydro-β-carbolin-9-yl)acetic acid] showed an IC50 of 6.2 µM.
With `O=C(O)Cn1c2c(c3ccc(Cl)cc31)CCN(Cc1ccc(Br)cc1F)C2=S` [Compound 37] the IC50 was 27.4 µM.
Work on `O=C(O)Cn1c2c(c3cc(F)ccc31)CCN(Cc1ccccc1)C2=O` [Compound 22, (2-Benzyl-6-fluoro-1-oxo-1,2,3,4-tetrahydro-β-carbolin-9-yl)acetic acid] yielded an IC50 of 51.5 µM.
Compound `O=C(O)Cn1c2c(c3ccccc31)CCN(C(=O)c1ccccc1)C2=O` [Compound 55, (2-Benzoyl-1-oxo-1,2,3,4-tetrahydro-β-carbolin-9-yl)acetic acid] has an IC50 of 53.1 µM.
Work on `O=C(O)Cn1c2c(c3ccccc31)CCN(Cc1ccccc1)C2=S` [Compound 26, (2-Benzyl-1-thioxo-1,2,3,4-tetrahydro-β-carbolin-9-yl)acetic acid] yielded an IC50 of 4.2 µM.
In the case of `O=C(O)Cn1c2c(c3ccccc31)CCN(C(=O)c1cc(O)c(O)c(O)c1)C2=O` [Compound 54, [2-(3,4,5-Trihydroxybenzoyl)-1-oxo-1,2,3,4-tetrahydro-β-carbolin-9-yl]acetic acid], the IC50 is reported as 48 µM.
`O=C(O)Cn1c2c(c3ccc(Cl)cc31)CCN(Cc1ccccc1)C2=S` [Compound 38, (2-Benzyl-7-chloro-1-thioxo-1,2,3,4-tetrahydro-β-carbolin-9-yl)acetic acid] showed an IC50 of 3.7 µM.
Work on `O=C(O)Cn1c2c(c3cc(Cc4ccccc4)ccc31)CCSC2=O` [Compound 60, (6-Benzyl-1-oxo-3,4-dihydro-1H-2-thia-9-azafluoren-9-yl)acetic acid] yielded an IC50 of 3.6 µM.
`O=C(O)Cn1c2c(c3ccccc31)CCN(CC1CCCCC1)C2=S` [Compound 34, (2-Cyclohexylmethyl-1-thioxo-1,2,3,4-tetrahydro-β-carbolin-9-yl)acetic acid] gave an IC50 of 7.2 µM.
`O=C(O)Cn1c2c(c3ccccc31)CCN(C(=O)c1ccc(Br)cc1)C2=O` [Compound 47, [2-(4-Bromobenzoyl)-1-oxo-1,2,3,4-tetrahydro-β-carbolin-9-yl]acetic acid] showed an IC50 of 34.6 µM.
`CC(C)(C)OC(=O)Cn1c2c(c3cc(F)ccc31)CCN(Cc1ccccc1)C2=S` [Compound 23, (2-benzyl-6-fluoro-1-thioxo-1,2,3,4-tetrahydro-β-carbolin-9-yl)acetic acid tert-butyl ester] gave an IC50 of 5.6 µM.
`O=C(O)Cn1c2c(c3ccccc31)CCN(C(=O)c1ccc(Br)cc1F)C2=O` [Compound 51, [2-(2-Fluoro-4-bromobenzoyl)-1-oxo-1,2,3,4-tetrahydro-β-carbolin-9-yl]acetic acid] was tested, and the IC50 was 68.3 µM.
Compound `COc1ccc(C(=O)N2CCc3c(n(CC(=O)O)c4ccccc34)C2=O)cc1` [Compound 48] has an IC50 of 35.8 µM.
In the case of `O=C(O)Cn1c2c(c3cc(C4CCCCC4)ccc31)CCSC2=O` [Compound 62, (6-Cyclohexyl-1-oxo-3,4-dihydro-1H-2-thia-9-azafluoren-9-yl)acetic acid], the IC50 is reported as 5.6 µM.
In the case of `O=C(O)Cn1c2c(c3cc(Cl)ccc31)CCSC2=O` [Compound 56, (6-chloro-1-oxo-3,4-dihydro-1H-2-thia-9-azafluoren-9-yl)acetic acid], the IC50 is reported as 1.1 µM.
`Cc1cc(C)c2c3c(n(CC(=O)O)c2c1)C(=O)SCC3` [Compound 63, (5,7-Dimethyl-1-oxo-3,4-dihydro-1H-2-thia-9-azafluoren-9-yl)acetic acid] was tested, and the IC50 was 5.9 µM.
`Cc1ccc2c(c1)c1c(n2CC(=O)O)C(=O)SCC1` [Compound 58, (6-Methyl-1-oxo-3,4-dihydro-1H-2-thia-9-azafluoren-9-yl)acetic acid] was tested, and the IC50 was 1.6 µM.
For `O=C(O)Cn1c2c(c3ccccc31)CCN(C(=O)c1ccc(F)cc1)C2=O` [Compound 46, [2-(4-fluorobenzoyl)-1-oxo-1,2,3,4-tetrahydro-β-carbolin-9-yl)acetic acid], the IC50 was 21.7 µM.
Work on `O=C(O)Cn1c2c(c3ccccc31)CCN(Cc1ccco1)C2=S` [Compound 35, [2-(2-Furanylmethyl)-1-thioxo-1,2,3,4-tetrahydro-β-carbolin-9-yl]acetic acid] yielded an IC50 of 16.3 µM.
In the case of `O=C(O)Cn1c2c(c3ccccc31)CCN(C(=O)c1cc(F)cc(F)c1)C2=O` [Compound 50, [2-(3.5-Difluorobenzoyl)-1-oxo-1,2,3,4-tetrahydro-β-carbolin-9-yl]acetic acid], the IC50 is reported as 34.5 µM.
Work on `O=C(O)Cn1c2c(c3cc4c(cc31)CCCC4)CCSC2=O` [Compound 65, (1-Oxo-3,4,6,7,8,9-hexahydro-1H-2-thia-11-azabenzo[b]fluoren-11-yl)acetic acid] yielded an IC50 of 3.4 µM.
`O=C(O)COc1ccc2c(c1)c1c(n2CC(=O)O)C(=S)N(Cc2ccccc2)CC1` [Compound 42, (2-Benzyl-6-carboxymethoxy-1-thioxo-1,2,3,4-tetrahydro-β-carbolin-9-yl)acetic acid] showed an IC50 of 2.6 µM.
Work on `O=C(O)Cn1c2c(c3ccccc31)CCN(C(=O)c1cc(F)c(F)c(F)c1)C2=O` [Compound 52, [2-(3,4,5-Trifluorobenzoyl)-1-oxo-1,2,3,4-tetrahydro-β-carbolin-9-yl]acetic acid] yielded an IC50 of 55.3 µM.
Compound `O=C(O)Cn1c2c(c3ccccc31)CCN(Cc1cccs1)C2=S` [Compound 36, [2-(2-Thienylmethyl)-1-thioxo-1,2,3,4-tetrahydro-β-carbolin-9-yl]acetic acid] has an IC50 of 7.6 µM.
Compound `O=C(O)Cn1c2c(c3cc(Cl)ccc31)CCN(Cc1ccccc1)C2=S` [Compound 27, (2-Benzyl-6-chloro-1-thioxo-1,2,3,4-tetrahydro-β-carbolin-9-yl)acetic acid] has an IC50 of 5 µM.
Compound `O=C(O)Cn1c2c(c3cc(Cl)ccc31)CCOC2=O` [Compound 30, (6-Chloro-1-oxo-3,4-dihydro-1H-pyrano[3,4-b]indol-9-yl)acetic acid] has an IC50 of 12.4 µM.
Compound `COc1ccc2c(c1)c1c(n2CC(=O)O)C(=O)SCC1` [Compound 61, (6-Methoxy-1-oxo-3,4-dihydro-1H-2-thia-9-azafluoren-9-yl)acetic acid] has an IC50 of 2.6 µM.
`O=C(O)Cn1c2c(c3c(F)cc(F)cc31)CCN(Cc1ccc(Br)cc1F)C2=S` [Compound 39] was tested, and the IC50 was 21.1 µM.

These compounds were tested on mouse leukemia adriamycin sensitive strain P388/S (assay: Cancer cell sensitivity test (MTT)). Details: Mus musculus; P388/S cells, test compound 25 μM, 44 hours, MTT-formazan at 540 nm; read-out: INHIBITORY RATE (%).
Assay type: cell-based
Protocol: Cells of mouse leukemia adriamycin sensitive strain P388/S were cultured in an RPMI1640 culture medium (5% fetal bovine serum, […] 2-mercaptoethanol, 30 μM kanamycin) under conditions of 37° C. and 5% CO2, and used for a compound sensitivity test.
The cell suspension (1.35×10^4 cells/ml) was added to a 96 well plate, 100 μl per well.
After culturing under the conditions of 37° C. and 5% CO2 for 16 hours, a solution of the test compound dissolved in DMSO to a concentration of 25 μM was added, followed by continuation of culture for a further 44 hours, while only DMSO was added to a control to continue the culture.
After culturing, […] (PBS, pH 7.4), was added in an amount of 25 μl/well, followed by incubation for four hours to produce MTT-formazan.
After removing supernatant by aspiration, 200 μl of DMSO was added and the absorbance of MTT-formazan at 540 nm was measured.
`O=C(O)Cn1c2c(c3ccccc31)CCN(Cc1ccccc1)C2=S` [Compound 26, (2-Benzyl-1-thioxo-1,2,3,4-tetrahydro-β-carbolin-9-yl)acetic acid] showed an inhibition at 25 µM of 88.1%.
`CCOC(=O)Cn1c2c(c3cc(F)ccc31)CCN(Cc1ccccc1)C2=O` [Compound 22a, (2-Benzyl-6-fluoro-1-oxo-1,2,3,4-tetrahydro-β-carbolin-9-yl)acetic acid ethyl ester] was tested, and the inhibition at 25 µM was 34.5%.
In the case of `O=C(O)Cn1c2c(c3ccccc31)CCN(C(=O)c1cc(F)c(F)c(F)c1)C2=O` [Compound 52, [2-(3,4,5-Trifluorobenzoyl)-1-oxo-1,2,3,4-tetrahydro-β-carbolin-9-yl]acetic acid], the inhibition at 25 µM is reported as 34.7%.
For `O=C(O)Cn1c2c(c3cc(Cl)ccc31)CCOC2=O` [Compound 30, (6-Chloro-1-oxo-3,4-dihydro-1H-pyrano[3,4-b]indol-9-yl)acetic acid], the inhibition at 25 µM was 31.1%.

Same assay, conditions: P388/S cells, test compound 25 μM, 44 hours, MTT-formazan at 540 nm
In the case of `CC(C)(C)OC(=O)Cn1c2c(c3cc(F)ccc31)CCN(Cc1ccccc1)C2=S` [Compound 23, (2-benzyl-6-fluoro-1-thioxo-1,2,3,4-tetrahydro-β-carbolin-9-yl)acetic acid tert-butyl ester], the “INHIBITORY RATE (%)” value is reported as 92.9%.
